We go through twelve compounds from US11000491B2, “Amino-aryl-benzamide compounds and methods of use thereof” (HEPANOVA, INC., priority 2017, dated 2021).

Assay type in all cases: cell-based
The test system of test [1] is Huh7 cells. Description: LD content in Huh7 cells pre-treated with insulin, Oil-Red-O staining, absorbance OD 540 nm. The conditions noted are these: procedure of Example 3, read-out: LD content inhibition (EC50). The gist of the method: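 Huh7 cells, mock-treated or pre-treated with 1 mM insulin, were then exposed to compound at the indicated amounts. Lipid droplets stained with Oil Red O and quantified by absorbance at OD 540 nm.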

Test [2] relates to SREBP-2. Briefly: SREBP-2 expression in cultured primary human hepatocytes. The conditions noted are these: procedure of Example 6, read-out: SREBP-2 mRNA inhibition (EC50). The gist of the method:
(§1)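 Primary human hepatocytes in culture exposed to a range of HPN-01 derivative concentrations; SREBP-1 and SREBP-2 mRNA expression then measured to assess inhibition.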

The test system of test [3] is SREBP-1. Description: SREBP-1 expression in cultured primary human hepatocytes. The conditions noted are these: procedure of Example 6, read-out: SREBP-1 mRNA inhibition (EC50). In outline:
as §1

[4] abbreviates: Homo sapiens, Huh-7, Huh7 cells.

Where two headings read alike, the source gives them in different places.

For the compound `NC(=O)c1cc(-c2ccc(Cl)cc2)cc(-c2ccc(S(N)(=O)=O)cc2)c1NCc1cccc(Cl)c1` [HPN-01532, 4-chloro-4′-((3-chlorobenzyl)amino)-4″-sulfamoyl-[1,1′:3′,1″-terphenyl]-5′-carboxamide], the EC50 – broadly, the concentration that produces a half-maximal response – in test [1] (setting [4]) was found to be 1.15 µM; in test [2] (Homo sapiens, Hepatocyte), 8.6 µM; in test [3] (Homo sapiens, Hepatocyte), 2.69 µM.

In the case of “2-amino-5-((3-chlorophenyl)ethynyl)-4′-sulfamoyl-[1,1′-biphenyl]-3-carboxamide [HPN-01206]”, the EC50 in test [1] (Huh7 cells) amounted to 0.9 µM; in test [2], 1.07 µM; in test [3] it was 1.68 µM.

For `NC(=O)c1cc(-c2ccc(Cl)cc2)cc(-c2ccc(-c3c[nH]nn3)cc2)c1N` [HPN-01421, 4′-amino-4-chloro-4″-(1H-1,2,3-triazol-4-yl)-[1,1′:3′,1″-terphenyl]-5′-carboxamide], the EC50 in test [1] (setting [4]) came out at 0.75 µM; in test [2] (Homo sapiens, Hepatocyte), 2.22 µM; in test [3] (Homo sapiens, Hepatocyte) it was 1.51 µM.

For the compound `CC(=O)Nc1c(C(N)=O)cc(-c2ccc(Cl)cc2)cc1-c1ccc(S(N)(=O)=O)cc1` [HPN-01501, 4′-acetamido-4-chloro-4″-sulfamoyl-[1,1′:3′,1″-terphenyl]-5′-carboxamide], the EC50 in test [1] (setting [4]) came out at 1.67 µM; in test [2] (Homo sapiens, Hepatocyte), 8.55 µM; in test [3] (Homo sapiens, Hepatocyte), 5.04 µM.

Take `CC(=O)Oc1ccc(-c2cc(C(N)=O)c(N)c(-c3ccc(S(N)(=O)=O)cc3)c2)cc1` [HPN-01304, 4′-amino-5′-carbamoyl-4″-sulfamoyl-[1,1′:3′,1″-terphenyl]-4-yl acetate]: the EC50 in test [1] (setting [4]) is 0.83 µM; in test [2] (Homo sapiens, Hepatocyte), 2.77 µM; in test [3] (Homo sapiens, Hepatocyte) it was 1.54 µM.

As for `NC(=O)c1cc(/C=C/C(=O)OCCc2ccccc2)cc(-c2ccc(S(N)(=O)=O)cc2)c1N` [HPN-01123, phenethyl (E)-3-(6-amino-5-carbamoyl-4′-sulfamoyl-[1,1′-biphenyl]-3-yl)acrylate], the EC50 in test [1] (setting [4]) is 0.89 µM; in test [2] (Homo sapiens, Hepatocyte), 4.45 µM; in test [3] (Homo sapiens, Hepatocyte), 3.45 µM.

As to `NC(=O)c1cc(C#CCOC(=O)c2cccc(O)c2)cc(-c2ccc(S(N)(=O)=O)cc2)c1N` [HPN-01219, 3-(6-amino-5-carbamoyl-4′-sulfamoyl-[1,1′-biphenyl]-3-yl)prop-2-yn-1-yl 3-hydroxybenzoate], the EC50 worked out at 0.96 µM in test [1] (setting [4]); 6.91 µM in test [2] (Homo sapiens, Hepatocyte); 4.71 µM in test [3] (Homo sapiens, Hepatocyte).

As for `CCCC(=O)OCC#Cc1cc(C(N)=O)c(N)c(-c2ccc(S(N)(=O)=O)cc2)c1` [HPN-01224, 3-(6-amino-5-carbamoyl-4′-sulfamoyl-[1,1′-biphenyl]-3-yl)prop-2-yn-1-yl butyrate], the 50% effective concentration (EC50) amounted to 0.58 µM in test [1] (setting [4]); 2.57 µM in test [2] (Homo sapiens, Hepatocyte); 1.58 µM in test [3] (Homo sapiens, Hepatocyte).

For the compound “4′-(2-aminoacetamido)-4-chloro-4″-ureido-[1, 1′:3′,1″-terphenyl]-5′-carboxamide [HPN-01518]”, the EC50 in test [1] (Huh7 cells) stood at 1.11 µM; in test [2] it was 4.86 µM; in test [3], 2.92 µM.

In the case of `NC(=O)c1cc(Oc2cccc(C(=O)O)c2)cc(-c2ccc(S(N)(=O)=O)cc2)c1N` [HPN-01318, 3-((6-amino-5-carbamoyl-4′-sulfamoyl-[1,1′-biphenyl]-3-yl)oxy)benzoic acid], the EC50 in test [1] (setting [4]) is 0.31 µM; in test [2] (Homo sapiens, Hepatocyte), 1.16 µM; in test [3] (Homo sapiens, Hepatocyte), 0.77 µM.

Turning to `COC(=O)c1ccc(-c2cc(C(N)=O)c(N)c(-c3ccc(S(N)(=O)=O)cc3)c2)cc1` [HPN-01301, methyl 4′-amino-5′-carbamoyl-4″-sulfamoyl-[1,1′:3′,1″-terphenyl]-4-carboxylate], the EC50 amounted to 1.19 µM in test [1] (setting [4]); 5.35 µM in test [2] (Homo sapiens, Hepatocyte); 3.44 µM in test [3] (Homo sapiens, Hepatocyte).

On to `Nc1c(C(=O)Nc2ccc(O)c(O)c2)cc(-c2ccc(Br)cc2)cc1-c1ccc(S(N)(=O)=O)cc1` [HPN-01618, 4′-amino-4-bromo-N-(3,4-dihydroxyphenyl)-4″-sulfamoyl-[1,1′:3′,1″-terphenyl]-5′-carboxamide], for which the EC50 was found to be 1.43 µM in test [1] (setting [4]); 6.37 µM in test [2] (Homo sapiens, Hepatocyte); 3.57 µM in test [3] (Homo sapiens, Hepatocyte).
